Test results from publication PMC4838876, “Multivalent display of minimal Clostridium difficile glycan epitopes mimics antigenic properties of larger glycans” (Nature Communications, 2016).

Key:
Type in all cases: binding, mouse
[1] = test system: mAb 2C5; experiment: Isothermal titration calorimetry (ITC)
Method: (§1) Figure 7 IM and thermodynamic analysis of glycan–mAb interactions and conformation of 1. (a) IM analysis. The heat maps represent on- and off-rates of mAb 2C5 to 1 (upper) and 3 (lower). (b) Thermograms acquired using 7 μM of mAb 2C5 and titrating 250 μM of 1 (left) or 3 mM of 3 (right) at 25 °C. Thermodynamic parameters were inferred by nonlinear least-square fits of the data points. (c) Summary of thermodynamic parameters for 1 and 3 interacting with mAbs 2C5 and 10A1. Bars represent mean±s.e.m. of two independent measurements. See Supplementary Fig. 6 for details. (d) One-dimensional proton NMR spectrum, and 2D zTOCSY and NOE spectroscopy (NOESY) NMR spectra of 1 showing the coupled protons to the anomeric protons of the five residues with numbering according to the structure shown in e. Blue circles mark cross-peaks that appear in the NOESY spectrum, whereas not showing a corresponding peak in the zTOCSY. These peaks were marked as inter-residue NOEs and labelled by residue number and proton name. […]
(§2) Assuming that 1 had more interactions with the binding pockets, association with 1 would liberate more water molecules during complex formation than 3, thereby producing a more favourable entropy. To investigate this, thermodynamic parameters of mAb interactions with 1 and 3 were measured by ITC (Fig. 7b). […]

[2] = test system: mAb 10A1; experiment: Isothermal titration calorimetry (ITC)
Method: as §1, §2

[3] = test system: anti-PS-I mAbs; experiment: STD-NMR competition experiment; conditions: 1 added to 200 μM, saturation transfer time 2 s
From the text: Figure 6 Epitope mapping of glycan–mAb interactions by STD-NMR. (a,b) Recognition of disaccharide 3 by mAb 10A1 shown as Lewis structure and three-dimensional model calculated with Glycam[70]. Colours indicate percentages of STD effects. (c) Recognition patterns of 3 by three mAbs. STD spectra were acquired at 2 s saturation transfer time in the presence of mAbs 2C5, 10A1 and 10D6 (from top to bottom). (d) Competition of trisaccharide 2 by pentasaccharide 1.
Owing to the slow off-rates of 1 with all three mAbs, we were unable to determine any STD effects for the pentasaccharide. […] This indicated identical binding sites and confirmed high-affinity binding of 1.
Before the STD-NMR studies, proton resonances of oligosaccharides 1–3 were assigned using standard one-dimensional proton spectra, as well as 2D total correlation spectroscopy (2D-TOCSY), correlation spectroscopy, ^1H–^13C heteronuclear single quantum coherence and ^1H–^13C heteronuclear multiple bond correlation spectra at concentrations varying between 5 and 20 mM in D2O. All NMR studies were measured at 298 K on a Varian PremiumCOMPACT 600 MHz spectrometer equipped with a OneNMR probe. […] A total of 2,048 scans were recorded. […] STD build-up curves for mAb 10A1 were recorded at saturation transfer times of 0.5, 1, 2, 4 and 6 s, adjusting the prescan delay accordingly. […]

## C[C@@H]1O[C@@H](O[C@@H]2[C@@H](O)[C@H](O[C@H]3[C@H](O[C@@H]4O[C@@H](C)[C@H](O)[C@@H](O)[C@H]4O)[C@@H](O)[C@@H](O[C@H]4[C@@H](OCCCCCN)O[C@H](CO)[C@@H](O)[C@@H]4O)O[C@@H]3CO)O[C@H](CO)[C@H]2O)[C@H](O)[C@H](O)[C@H]1O [Compound 1]
[1]
  binding stoichiometry: 2.2
[2]
  binding stoichiometry: 2.6
[3]
  Competition of trisaccharide 2 STD effects (in words): completely diminished any STD effects imposed by 2
